{"source": "patent US9540649B2", "about": "“Method for opening tight junctions” (The Provost, Fellows and Scholars of the College of the …, priority 2007, dated 2017)", "key": {"claudin-5": {"system": "claudin-5", "test": "Western blot analysis of claudin-5 expression in brain after hydrodynamic tail vein delivery of siRNA", "format": "in vivo, C57/Bl6 mice", "protocol": "Rapid high pressure, high volume tail vein injections were carried out (Kiang et al., 2005). Wild type C57/Bl6 mice of weight 20-30 g were individually restrained inside a 60-ml volume plastic tube. The protruding tail was warmed for 5 minutes prior to injection under a 60-W lamp and the tail vein clearly visualized by illumination from below. 20 micrograms of targeting siRNA, or non-targeting siRNA made up with PBS to a volume in mls of 10% of the body weight in grams or PBS alone, was injected into the tail vein at a rate of 1 ml/sec using a 26-gauge (26 G 3/8) needle. After 24, 48, 72 hours and 1 week, protein was isolated from total brain tissue by crushing brains to a fine powder in liquid N2 and subsequently using lysis buffer containing 62.5 mM Tris, 2% SDS, 10 mM Dithiothreitol, 10 μl protease inhibitor cocktail/100 ml (Sigma Aldrich, Ireland). The homogenate was centrifuged at 10,000 g for 20 mins @4° C., and the supernatant was removed for claudin-5 analysis.\nBriefly, protein samples were separated on 12% SDS-PAGE gels and transferred to nitrocellulose membrane overnight using a wet electroblot apparatus. Efficiency of protein transfer was determined using Ponceau-S solution (Sigma Aldrich, Ireland). Non-specific binding sites were blocked by incubating the membrane at room temperature with 5% non-fat dry skimmed milk in Tris-buffered saline (TBS) (0.05 M Tris, 150 mM NaCl, pH 7.5) for 2 hours. Membranes were briefly washed with TBS, and incubated with polyclonal rabbit anti-claudin-5 (Zymed Laboratories, San Francisco, Calif.) (1:500) or polyclonal rabbit anti-β-actin (Abcam, Cambridge, UK) (1:1000). Antibodies were incubated with membranes overnight at 4° C. Membranes were washed with TBS, and incubated with a secondary anti-rabbit (IgG) antibody with Horse-Radish-Peroxidase (HRP) conjugates (1:2500), for 3 hours at room temperature. Immune complexes were detected using enhanced chemiluminescence (ECL)."}, "BBB": {"system": "BBB", "test": "Assessment of BBB integrity by perfusion of biotinylated tracer EZ-Link Sulfo-NHS-Biotin (443 Da)", "format": "in vivo, C57/Bl6 mice", "protocol": "Following RNAi-mediated ablation of transcripts encoding claudin-5, a tracer molecule was used to determine the extent to which the TJ's of the BBB had been affected. The biotinylated reagent EZ-Link™ Sulfo-NHS-Biotin (Pierce) (1 ml/g body weight of 2 mg/ml EZ-Link™ Sulfo-NHS-Biotin, 443 Da) was perfused for 5 minutes through the left ventricle of mice 24, 48, 72 hours and 1 week post-hydrodynamic delivery of claudin-5 siRNA. Following perfusion with the tracer molecule, the whole brain was dissected and placed in 4% PFA pH 7.4 overnight at 4° C. and subsequently washed 4×15 mins with PBS. Following cryoprotection with sucrose, frozen sections were cut on a cryostat at −20° C. and incubated with streptavidin conjugated to the fluorescent probe FITC. This allowed for the assessment of leakage of the biotinylated reagent of molecular weight 443 Da from the microvessels of the brain. All sections were counterstained with 4′,6-diamidine-2-phenylindole-dihydrochloride (DAPI; Sigma Aldrich, Ireland) for 30 seconds at a dilution of 1:5000 of a stock 1 mg/ml solution, and sections were visualized using an Olympus FluoView™ FV1000 Confocal microscope."}, "[1]": {"test": "MRI blood flow/volume (mean transit time, capillary transit time) in brain after claudin-5 siRNA", "format": "in vivo, mice", "settings": "24 and 48 hours post-high volume tail vein injection; up to 8 animals per group", "protocol": "48 hours post-delivery of siRNA targeting claudin-5 or a non-targeting siRNA, a solution containing Gd-DTPA injected to the claudin-5 suppressed mice. Gd-DTPA was injected in the tail vein to assess whether Gd-TPA would permeate across the BBB. Following injection of siRNA and using appropriate controls, BBB integrity to a molecule of 742 Daltons (Gd-DTPA) was assessed via MRI, using a dedicated small rodent Bruker BioSpec 70/30 (i.e. 7 T, 30 cm bore) with an actively shielded USR Magnet. Mice were anaesthetised with isofluorane, and physiologically monitored (ECG, respiration and temperature) and placed on an MRI-compatible support cradle, which has a built-in system for maintaining the animal's body temperature at 37° C. The cradle was then positioned within the MRI scanner. Accurate positioning is ensured by acquiring an initial rapid pilot image, which is then used to ensure the correct geometry is scanned in all subsequent MRI experiments. […] Statistical analysis of all densitometric results of combined regions of the Cerebellum, Hippocampus and Cortex was performed using ANOVA, with significance represented by a P value of ≦0.05, and results are presented both graphically and in a quantitative image depicting the rate of Gd-DTPA deposition within the brain. […]\nThis is calculated from the first moment or mean of the curve. […]"}}, "note": "“Also recorded” adds a separate entry of the source."}
{"substance": "claudin-5 siRNA: siRNA, sense CGUUGGAAAUUCUGGGUCUUU (SEQ ID NO: 1), antisense AGACCCAGAAUUUCCAACGUU (SEQ ID NO: 2) (listed as RNA, chemistry not given here)", "values": [{"measurement": "claudin-5 expression, Western blot, brain", "setting": "claudin-5; 24 hours post delivery of 20 μg siRNA, vs un-injected, PBS and non-targeting siRNA controls", "result": "decrease in expression; also recorded: markedly decreased"}, {"measurement": "claudin-5 expression, Western blot, brain", "setting": "claudin-5; 48 hours post delivery of 20 μg siRNA, vs controls", "result": "suppression was also evident"}, {"measurement": "claudin-5 expression, Western blot, brain", "setting": "claudin-5; 48 hours post delivery of 20 μg siRNA, vs controls, listed as CLDN5 siRNA", "result": "significant decreases in Claudin-5 expression"}, {"measurement": "claudin-5 expression, Western blot, brain", "setting": "claudin-5; 48 hours post delivery of 20 μg siRNA, vs controls, listed as siRNA targeting claudin-5", "result": "maximum suppression"}, {"measurement": "claudin-5 expression, Western blot, brain", "setting": "claudin-5; 72 hours post delivery of 20 μg siRNA, vs controls, listed as CLDN5 siRNA", "result": "levels of expression appeared similar to those observed in the control groups"}, {"measurement": "time at which claudin-5 expression returns to normal, Western data", "setting": "claudin-5; after injection", "result": "returning to normal between 72 hours and 1 week"}, {"measurement": "BBB permeability to EZ-Link Sulfo-NHS-Biotin (443 Da)", "setting": "BBB; 1 week post-injection", "result": "no evidence for BBB compromise; also recorded: failed to deposit in the parenchyma; also recorded: did not allow for the passage; also recorded: no longer crossed the BBB"}, {"measurement": "BBB permeability to EZ-Link Sulfo-NHS-Biotin (443 Da)", "setting": "BBB; 1 week post-injection, listed as siRNA targeting claudin-5", "result": "did not deposit in the parenchyma"}, {"measurement": "BBB permeability to EZ-Link Sulfo-NHS-Biotin (443 Da)", "setting": "BBB; 24 hours post-injection, perfusion 5 minutes, listed as siRNA targeting claudin-5", "result": "diffuse and outside of the microvessels; also recorded: increase in permeability; also recorded: infiltration of the molecule into the parenchyma of the brain"}, {"measurement": "BBB permeability to EZ-Link Sulfo-NHS-Biotin (443 Da)", "setting": "BBB; 48 hours post-injection", "result": "abundant in the brain parenchyma"}, {"measurement": "BBB permeability to EZ-Link Sulfo-NHS-Biotin (443 Da)", "setting": "BBB; 48 hours post-injection, listed as siRNA targeting claudin-5", "result": "very distinct; also recorded: detected in abundance"}, {"measurement": "BBB permeability to EZ-Link Sulfo-NHS-Biotin (443 Da)", "setting": "BBB; 72 hours post-delivery", "result": "permeability was still evident; also recorded: still evidenced"}, {"measurement": "BBB permeability to EZ-Link Sulfo-NHS-Biotin (443 Da)", "setting": "BBB; 72 hours post-delivery, listed as siRNA targeting claudin-5", "result": "significant compromise in barrier function; also recorded: crossed the BBB"}, {"measurement": "blood flow / blood volume in major brain vessels and capillaries (MTT, CTT), MRI", "setting": "[1]", "result": "no significant differences in blood flow; also recorded: not observing any difference in blood flow or blood volume"}]}
